According to publication PMC8126654, “Novel Pan-Pim Kinase Inhibitors With Imidazopyridazine and Thiazolidinedione Structure Exert Potent Antitumor Activities” (Frontiers in Pharmacology, 2021):
Like-named read-outs stand apart in the source and are kept apart here.

Experiments:
[1] = cited from earlier work
[2] = molecular target: T1, Pim-1 (Homo sapiens, UniProt P11309); assay: In vitro Pim kinase activity assay (FRET-based Z'-LYTE), Pim-1; format: biochemical; conditions: ATP 400 µM; read-out: IC50 values for enzyme activities, Pim-1
T1 construct: purchased Life Technologies; Thermo Fisher Scientific Inc
Experimental: (§1) The inhibition ratios of test compounds for Pim-1, 2 (Life Technologies; Thermo Fisher Scientific Inc., MA, United States), 3 (Merck KgaA), and FLT3 (Life Technologies; Thermo Fisher Scientific Inc., MA, United States) were determined using a modified FRET-based Z′-LYTE kinase assay kit (Invitrogen; Thermo Fisher Scientific Inc.). The Ser/Thr 7 peptide and Tyr-2 peptide were used as substrates for Pim kinases and FLT3, respectively. The reactions were carried out in a 384-well plate with a 10 µL reaction volume per well containing 1 µM substrates in 50 mM HEPES buffer with pH 7.5, 0.01% BRIJ-35, 10 mM MgCl2, 1 mM EGTA, and an appropriate amount of kinases (Pim-1: 0.03 μg/ml, Pim-2: 0.2 μg/ml, Pim-3: 0.2 μg/ml, FLT3: 0.1 μg/ml) with test compounds. The final reaction concentrations of ATP were 400, 5, 100, and 500 µM for Pim-1, 2, 3, and FLT3 respectively. After 1 h incubation, reactions were developed and terminated, and fluorescence ratios were calculated following the manufacturer’s protocol.

[3] = molecular target: T2, Pim-3 (Homo sapiens, UniProt Q86V86); assay: In vitro Pim kinase activity assay (FRET-based Z'-LYTE), Pim-3; format: biochemical; conditions: ATP 100 µM; read-out: IC50 values for enzyme activities, Pim-3
T2 construct: purchased Merck KgaA
Experimental: as §1

[4] = molecular target: T3, Pim-2 (Homo sapiens, UniProt Q9P1W9); assay: In vitro Pim kinase activity assay (FRET-based Z'-LYTE), Pim-2; format: biochemical; conditions: ATP 5 µM; read-out: IC50 values for enzyme activities, Pim-2
T3 construct: purchased Life Technologies; Thermo Fisher Scientific Inc
Experimental: as §1

[5] = molecular target: T1, Pim-1; assay: Binding detection based on SPR platform (BIACORE T200); conditions: 6.5, 13, 25, or 50 µM
Experimental: The interactions between test compounds and Pim-1 were detected by surface plasmon resonance platform BIACORE T200 (GE Healthcare Life Sciences, Buckinghamshire, England). Pim-1 was diluted to 20 μg/ml in 10 mM acetate buffer (pH 5.0), and then immobilized as a ligand in the N-hydroxysuccinimide/ethyl 3-(3-dimethylaminopropyl) carbodiimide-pre-activated CM5 sensor chip, following blocking by ethanolamine. Test compounds were diluted at 6.5, 13, 25, or 50 µM in a vehicle of 5% DMSO (v/v) in phosphate buffered saline (PBS). The dilutions were injected as analyte flow liquid phase with PBS containing 5% DMSO (v/v) as running buffer at a constant flow rate of 30 μL/min. A 2-min association time was set. The data were collected by Biacore Control Software. Kinetics and affinity parameters were evaluated with the Langmuir model (1:1) using BIA evaluation software.

[6] = tested on: PC-3 xenograft model; assay: In vivo xenograft study, PC-3; parameters: species or system BALB/cSlc-nu/nu mice; conditions: for TGI (tumor growth inhibition): intravenously every 4 days
Experimental: (§2) For evaluation of antitumor activity, MV-4-11 (5 × 10^6 cells) or PC-3 cells (2 × 10^6 cells) were injected subcutaneously in the inguinal region of 6-week-old male BALB/cSlc-nu/nu mice (Japan SLC, Inc., Shizuoka, Japan), with Matrigel (BD Biosciences, San Jose, CA, USA). When the average tumor volume (length × width^2 × 1/2) had reached 40 to 120 mm^3, animals were randomized into groups of seven mice for vehicle control group of MV-4-11 xenograft model or five mice for the other groups (day 1). Test compounds were injected into the tail vein every 4 days from day 1, with an administration volume of 10 ml/kg. Tumor volumes were measured 2 times per week and body weights of the mice were monitored on 2 or 3 times per week as an indicator of tolerability. On day 22 or 16, antitumor activity was evaluated by weighing tumor tissues. Tumor growth inhibition, TGI (%), was calculated according to formula (1 − T/C) × 100, where T and C are the mean tumor weights for the experimental and vehicle control groups, respectively. The differences between the mean tumor weights for comparing groups were analyzed using Dunnett’s test, where P < 0.05 was considered to be significant.

[7] = tested on: phosphorylation level of 4E-BP in PC-3 tumors; assay: Pharmacodynamics study in PC-3 xenograft tumors (phospho-4E-BP immunoblot); format: in vivo, mice; conditions: single dose 187.5 mg/kg
Experimental: (§3) Cells were plated overnight and then treated with test compounds for 4 hours. Then, the cells were lyzed in solubilization buffer [10 mM Tris-HCl (pH7.4), 0.1% (w/v) NP-40, 0.1% (w/v) sodium deoxycholate, 0.1% (w/v) SDS, 0.15 M NaCl, 1 mM EDTA, 10 µM aprotinin] with phosphatase inhibitor cocktails (Nakarai Tesque, Kyoto, Japan), and subjected to SDS-PAGE using 15% (w/v) gels under reducing conditions. The separated proteins were electrotransferred to Immobilon transfer membranes (Merck Millipore, Darmstadt, Germany). Then, each membrane was reacted with primary antibodies, which were subsequently complexed with appropriate horseradish peroxidase-conjugated secondary antibodies. Signals were detected using the ECL Western Blotting Detection System (GE Healthcare Life Sciences) and protein expression was quantified with a LAS-3000 Luminescent Image Analyzer (GE Healthcare Life Sciences). The protein bands were quantified using ImageQuant TL software (GE Healthcare Life Sciences).
Tumors were resected 1, 2, 6, or 24 h after injection and lyzed for immunoblot analysis.

[8] = tested on: MV-4-11 xenograft model; assay: In vivo xenograft study, MV-4-11; parameters: species or system BALB/cSlc-nu/nu mice; conditions: for TGI (tumor growth inhibition): intravenously every 4 days
Experimental: as §2

[9] = tested on: PC-3; assay: Immunoblot analysis of phosphorylation of Pim kinase substrates, PC-3; format: cell-based; conditions: PC-3, 4 h
Experimental: as §3

[10] = molecular target: T4, FLT3 (Homo sapiens, UniProt P36888); assay: FLT3 kinase activity assay (FRET-based Z'-LYTE); format: biochemical; conditions: ATP 500 µM; read-out: IC50 against FLT3 kinase
T4 construct: purchased Life Technologies; Thermo Fisher Scientific Inc
T4 sequence (P36888 27-993): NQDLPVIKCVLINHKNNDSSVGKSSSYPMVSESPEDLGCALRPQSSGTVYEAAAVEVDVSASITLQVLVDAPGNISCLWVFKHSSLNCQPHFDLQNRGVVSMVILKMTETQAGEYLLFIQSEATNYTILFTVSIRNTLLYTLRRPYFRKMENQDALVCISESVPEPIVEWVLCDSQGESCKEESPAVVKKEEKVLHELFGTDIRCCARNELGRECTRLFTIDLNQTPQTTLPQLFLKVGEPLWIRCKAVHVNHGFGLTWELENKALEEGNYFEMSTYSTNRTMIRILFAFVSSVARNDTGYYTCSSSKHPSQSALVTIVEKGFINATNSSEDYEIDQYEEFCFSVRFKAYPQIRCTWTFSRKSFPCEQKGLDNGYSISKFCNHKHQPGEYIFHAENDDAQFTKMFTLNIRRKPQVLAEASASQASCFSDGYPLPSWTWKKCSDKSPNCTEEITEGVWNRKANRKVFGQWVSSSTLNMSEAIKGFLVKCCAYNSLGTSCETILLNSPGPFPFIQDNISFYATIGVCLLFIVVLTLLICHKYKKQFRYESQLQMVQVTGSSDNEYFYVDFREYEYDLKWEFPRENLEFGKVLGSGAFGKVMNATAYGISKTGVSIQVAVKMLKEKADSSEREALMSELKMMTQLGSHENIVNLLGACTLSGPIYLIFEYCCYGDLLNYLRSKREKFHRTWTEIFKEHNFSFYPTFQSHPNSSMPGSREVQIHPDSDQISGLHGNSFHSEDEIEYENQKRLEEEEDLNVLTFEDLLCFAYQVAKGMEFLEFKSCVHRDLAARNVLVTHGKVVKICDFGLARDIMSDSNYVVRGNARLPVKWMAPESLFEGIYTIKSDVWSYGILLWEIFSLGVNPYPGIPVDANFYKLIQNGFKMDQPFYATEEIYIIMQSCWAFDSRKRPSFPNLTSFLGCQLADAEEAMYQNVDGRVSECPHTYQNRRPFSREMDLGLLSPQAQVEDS
Experimental: as §1

[11] = tested on: cancer cell lines; assay: Cytotoxicity assay for cell survival (cancer cell proliferation); format: cell-based; conditions: 96 hours; read-out: IC50 for proliferation of a broad spectrum of cancer cell lines (range)
Text: We obtained colon cancer HCT116 and HT-29 cells, prostate cancer PC-3, DU145, and LNCaP cells, lung cancer NCI-H460 and NCI-H522 cells, breast cancer MDA-MB-231 cells, AML MV-4-11 cells, and chronic myeloid leukemia (CML) K-562, MEG-01, and KU812 cells from American Type Culture Collection (Manassas, VA, United States); stomach cancer MKN45 cells from the Health Science Research Resources Bank (Osaka, Japan); pancreatic cancer AsPC-1 and MIA PaCa-2, and lung cancer A549 cells from DS Pharma Biomedical (Osaka, Japan). All cell lines were cultured in RPMI1640 medium (Life Technologies; Thermo Fisher Scientific Inc.) with 10% (v/v) fetal bovine serum (FBS; Sigma-Aldrich; Merck KgaA) at 37°C in 5% CO2.
Cells were seeded in 96-well plates and test compounds were added to the cultures at several concentrations.

[12] = experiment not completed (data not shown)

T3 sequence (Q9P1W9 whole entry): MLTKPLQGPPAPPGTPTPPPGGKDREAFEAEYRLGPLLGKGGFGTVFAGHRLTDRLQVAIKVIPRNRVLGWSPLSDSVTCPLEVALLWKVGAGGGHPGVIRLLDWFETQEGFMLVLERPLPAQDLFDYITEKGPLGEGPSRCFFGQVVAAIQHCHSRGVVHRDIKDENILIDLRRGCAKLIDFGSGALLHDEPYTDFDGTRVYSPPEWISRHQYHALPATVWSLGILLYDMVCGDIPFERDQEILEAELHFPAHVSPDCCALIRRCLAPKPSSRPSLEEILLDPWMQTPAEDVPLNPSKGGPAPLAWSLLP
T1 sequence (P11309 whole entry): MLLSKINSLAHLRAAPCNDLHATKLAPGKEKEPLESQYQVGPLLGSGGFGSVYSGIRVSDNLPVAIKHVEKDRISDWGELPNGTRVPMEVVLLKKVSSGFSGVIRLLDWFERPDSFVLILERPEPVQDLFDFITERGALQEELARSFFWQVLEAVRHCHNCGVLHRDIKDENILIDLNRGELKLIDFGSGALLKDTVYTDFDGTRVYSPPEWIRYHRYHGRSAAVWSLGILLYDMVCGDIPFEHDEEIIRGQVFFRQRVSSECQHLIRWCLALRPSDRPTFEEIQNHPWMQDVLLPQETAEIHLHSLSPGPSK

CN1CCC(CNc2ccc3ncc(-c4cccc(OC(F)(F)F)c4)n3n2)CC1 [SGI-1776]
Reason for termination of clinical study ([1]; ref NCT00848601): dose-limiting toxicity

N[C@@H]1CCCN(c2c(/C=C3\SC(=O)NC3=O)cccc2-c2ccccc2)C1 [AZD1208]
Reason for termination of clinical study ([1]; ref NCT01489722): lack of clinical response

CCCCCCCCCCN1CCN(c2ccc(-c3cnc4ccc(/C=C5\SC(=O)NC5=O)nn34)cc2F)CC1 [YPC-21814, (Z)-5-([3-{4-(4-decylpiperazin-1-yl)-3-fluorophenyl}imidazo[1,2-b]pyridazin-6-yl]methylene)thiazolidine-2,4-dione]
IC50 [2]: > 1800 nM
IC50 [3]: > 1800 nM
IC50 [4]: > 1800 nM
Binding to Pim-1 by SPR (Biacore) [5]: did not bind to Pim-1

CCN1CCN(c2ccc(-c3cnc4ccc(/C=C5\SC(=O)NC5=O)nn34)cc2F)CC1.CS(=O)(=O)O [YPC-21817 MsOH, (Z)-5-([3-{4-(4-ethylpiperazin-1-yl)-3-fluorophenyl}imidazo[1,2-b]pyridazin-6-yl]methylene)thiazolidine-2,4-dione methanesulfonate]
TGI (tumor growth inhibition) ([6]; 62.5 mg/kg/dose): 0.92%
TGI (tumor growth inhibition) ([6]; 125 mg/kg/dose): 8.4%
TGI (tumor growth inhibition) ([6]; 187.5 mg/kg/dose): 48%
Serious decrease in body weight ([6]; evaluation period): not observed
Phosphorylation level of 4E-BP in tumors ([7]; 1, 2, and 6 hours after administration): signigficantly decreased
Phosphorylation level of 4E-BP in tumors ([7]; 24 hours after administration): almost completely recovered
TGI (tumor growth inhibition) ([8]; 62.5 mg/kg/dose): 20%
TGI (tumor growth inhibition) ([8]; 125 mg/kg/dose): 39%
TGI (tumor growth inhibition) ([8]; 187.5 mg/kg/dose): 70%
Serious decrease in body weight ([8]; evaluation period): not observed

CN1CCN(c2ccc(-c3cnc4ccc(/C=C5\SC(=O)NC5=O)nn34)cc2C(C)(C)C)CC1 [YPC-21867, (Z)-5-([3-{3-(tert-butyl)-4-(4-methylpiperazin-1-yl)phenyl}imidazo[1,2-b]pyridazin-6-yl]methylene)thiazolidine-2,4-dione]
IC50 [2]: 120 nM
IC50 [3]: 540 nM
IC50 [4]: 190 nM

CCCCCN1CCN(c2ccc(-c3cnc4ccc(/C=C5\SC(=O)NC5=O)nn34)cc2F)CC1 [YPC-21813, (Z)-5-([3-{4-(4-pentylpiperazin-1-yl)-3-fluorophenyl}imidazo[1,2-b]pyridazin-6-yl]methylene)thiazolidine-2,4-dione]
IC50 [2]: 430 nM
IC50 [3]: 360 nM
IC50 [4]: 490 nM

CN1CCN(c2ccc(-c3cnc4ccc(/C=C5\SC(=O)NC5=O)nn34)cc2)CC1.CS(=O)(=O)O [YPC-21440 MsOH, (Z)-5-([3-{4-(4-methylpiperazin-1-yl)phenyl}imidazo[1,2-b]pyridazin-6-yl]methylene)thiazolidine-2,4-dione methanesulfonate]
Body weight loss [6, 12]: serious body weight loss
Tumor growth [6, 12]: tended to be suppressed
TGI (tumor growth inhibition) ([8]; 62.5 mg/kg/dose): 26%
Body weight decrease (as much as) compared with day 1 ([8]; 125 mg/kg/dose): 5.2 ± 10%
TGI (tumor growth inhibition) ([8]; 125 mg/kg/dose): 60%
Body weight decrease (as much as) compared with day 1 ([8]; 187.5 mg/kg/dose): 7.1 ± 21%
TGI (tumor growth inhibition) ([8]; 187.5 mg/kg/dose): 77%

CCN1CCN(c2ccc(-c3cnc4ccc(/C=C5\SC(=O)NC5=O)nn34)cc2F)CC1 [YPC-21817, (Z)-5-([3-{4-(4-ethylpiperazin-1-yl)-3-fluorophenyl}imidazo[1,2-b]pyridazin-6-yl]methylene)thiazolidine-2,4-dione]
Phosphorylation levels of Bad, 4EBP, and p21 [9]: decreased
IC50 [10]: 2000 nM
IC50 [11]: 24 to 650 nM
